pIC50: −log10 of the molar value.
Legend:
[1] = tested on: WiDr cells (colon cancer cells; wildtype SF3B1); test: Cell viability assay (CellTiter-Glo, 72 hr), WiDr cells; format: cell-based; settings: Homo sapiens; WiDr cells (wildtype SF3B1); read-out: WiDr GI50
Procedure, shortened: (§1)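 Cells at 2000/well were exposed to 9 compound concentrations (0.1% DMSO) in duplicate or triplicate for 72 hr at 37 °C. ATP was read by CellTiter-Glo against a time-zero plate and DMSO control growth. Percent growth/viability was plotted against concentration to give Emax; negative values indicate lethality.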

[2] = tested on: Panc 05.04 cells (pancreatic cancer cells; Q699H and K700E mutations in SF3B1); test: Cell viability assay (CellTiter-Glo, 72 hr), Panc 05.04 cells; format: cell-based; settings: Panc 05.04 cells (mutant SF3B1); for Emax: maximum achievable response in tested dose range, negative value = cellular lethality, read-out: Panc 05.04 (mt SF3B1 cells) Emax (%); for GI50: read-out: Panc 05.04 (mt SF3B1 cells), GI50
Procedure, shortened: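 Viability was read as ATP content (CellTiter-Glo) after 72 hr compound exposure of Panc 05.04 cells at 37 °C, nine concentrations, 0.1% DMSO. Percentage growth was referenced to time-zero and vehicle wells and plotted against concentration to obtain Emax; negative Emax denotes cell killing.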

[3] = target: T1, SF3b complexes (Homo sapiens, UniProt O75533+Q7RTV0); test: Scintillation proximity assay (SPA) with [3H]-labelled pladienolide probe; format: binding; settings: wt SF3B1, read-out: SPA (wt SF3B1 cells) IC50
T1 construct: endogenous in cells
Procedure, shortened: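 SF3b complexes immunoprecipitated from nuclear extracts with anti-SF3B1 antibody on anti-mouse PVT SPA beads. Beads pre-incubated 30 min with varying PB or PB-OH, then 2.5 nM [3H]-PB added for 30 min; scintillation signal read and fit by non-linear regression.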

[4] = tested on: WiDr-R cells (colon cancer cells; chemically-induced SF3B1 R1074H mutant); test: Cell viability assay (CellTiter-Glo, 72 hr), resistant WiDr-R cells (counter-screen); format: cell-based; settings: WiDr-R cells (SF3B1 R1074H mutation, resistant); read-out: WiDr-R GI50
Procedure, shortened: as §1

SMILES	GI50 [1] [nM]	Emax [2] [%]	GI50 [2] [nM]	pIC50 [3]	GI50 [4] [nM]
C/C(=C\C=C\[C@@H](C)CCC(=O)N1CCCC1)[C@H]1OC(=O)C[C@H](O)CC[C@@](C)(O)[C@@H](OC(=O)N2CCN(C3CCCCCC3)CC2)/C=C/[C@@H]1C	12.7	-86.9	3.25	8.29	> 1000
CC[C@H](O)[C@@H](C)[C@H]1O[C@@H]1C[C@@](C)(O)/C=C/C=C(\C)[C@H]1OC(=O)C[C@H](O)CC[C@H](C)[C@@H](OC(C)=O)/C=C/[C@@H]1C	2.14	-65.3	4.88	8.28	822
C/C(=C\C=C\[C@@H](C)COC(=O)N1CCCC1)[C@H]1OC(=O)CCCCC[C@@H](NC(=O)N2CCN(C)CC2)/C=C/[C@@H]1C	18.5	-93.6	19	7.84	> 1000
C/C(=C\C=C\C(C)c1ncccc1C)[C@H]1OC(=O)C[C@H](O)CC[C@@](C)(O)[C@@H](OC(=O)N2CCN(C3CCCCCC3)CC2)/C=C/[C@@H]1C (some centres unmarked)	15.8	-92.3	21.2	8.20	> 1000
C/C(=C\C=C\[C@@H](C)c1ccccn1)[C@H]1OC(=O)C[C@H](O)CC[C@@](C)(O)[C@@H](OC(=O)N2C[C@H]3C[C@H]2CN3C)/C=C/[C@@H]1C	41.5	-29.4	56.4	7.91	> 1000
C/C(=C\C=C\[C@@H](C)COC(=O)N1CCC[C@H]1C(=O)O)[C@H]1OC(=O)C[C@H](O)CC[C@@](C)(O)[C@@H](OC(=O)N2CCN(C3CCCCCC3)CC2)/C=C/[C@@H]1C	> 1000	35	2640	7.44	> 1000
CC(=O)O[C@H]1/C=C/[C@H](C)[C@@H](/C(C)=C/C=C/[C@@H](C)COC(=O)N2CC[C@H](O)C2)OC(=O)C[C@H](O)CC[C@@]1(C)O	51.5	-89.6	45.1	7.02	> 10000
C/C(=C\C=C\[C@@H](C)CNC(=O)C1CCCC1)[C@H]1OC(=O)C[C@H](O)CC[C@@](C)(O)[C@@H](OC(=O)N2CCN(C3CCCCCC3)CC2)/C=C/[C@@H]1C	73	-88.4	53.3	7.95	> 1000
C/C(=C\C=C\C(C)c1cccnn1)[C@H]1OC(=O)C[C@H](O)CC[C@@](C)(O)[C@@H](OC(=O)N2CCN(C)CC2)/C=C/[C@@H]1C (some centres unmarked)	18.7	-90.9	59.2	8.04	> 1000
C/C(=C\C=C\[C@@H](C)c1ccccn1)[C@H]1OC(=O)C[C@H](O)CC[C@@](C)(O)[C@@H](OC(=O)N2CC3(C2)CN(C2CCCCCC2)C3)/C=C/[C@@H]1C	130	-41.9	115	7.15	> 1000
C/C(=C\C=C\[C@@H](C)COC(=O)N1CCCC1)[C@H]1OC(=O)C[C@H](O)CC[C@@](C)(O)[C@@H](OC(=O)N2CCN(C)CC2)/C=C/[C@@H]1C	3.83	-90.3	3.05	8.68	> 1000
CC(=O)O[C@H]1/C=C/[C@H](C)[C@@H](/C(C)=C/C=C/Cc2ccccn2)OC(=O)C[C@H](O)CC[C@@]1(C)O	559	87.2	> 10000	< 5.92	> 10000
C/C(=C\C=C\[C@@H](C)c1ccccn1)[C@H]1OC(=O)C[C@H](O)CC[C@@](C)(O)[C@@H](OC(=O)N2CCN(C3CCCC3)CC2)/C=C/[C@@H]1C	19.6	-89.5	27.9	8.06	> 1000
C/C(=C\C=C\[C@@H](C)COC(=O)N1CCCC1(C)C)[C@H]1OC(=O)C[C@H](O)CC[C@@](C)(O)[C@@H](OC(=O)N2CCN(C)CC2)/C=C/[C@@H]1C	9.61	-93.7	7.82	8.43	> 1000
C/C(=C\C=C\[C@@H](C)c1ccccn1)[C@H]1OC(=O)C[C@H](O)CC[C@@](C)(O)[C@@H](OC(=O)N2CCCN(C)CC2)/C=C/[C@@H]1C	33.1	-23.1	84.9	8.16	> 1000
C/C(=C\C=C\[C@H](C)c1ccccn1)[C@H]1OC(=O)C[C@H](O)CC[C@@](C)(O)[C@@H](OC(=O)N2CCN(C)CC2)/C=C/[C@@H]1C	34.3	-49.2	53.6	8.24	> 1000
